Target: T1, human full-length MKNK1 (Homo sapiens, UniProt Q9BUB5, T385D)
T1 construct: purchased Carna Biosciences 02-145; host or cells: insect cells, baculovirus expression system
Assay: MKNK1 kinase high ATP assay (TR-FRET)
Assay type: biochemical
Conditions: high ATP (2 mM), 15 min preincubation with enzyme, GST-MKNK1 (T344D)
In short: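 GST-tagged full-length human MKNK1 (aa 1-424, T344D), baculovirus-expressed, preincubated 15 min with compound, then reacted 30 min at 22 °C with 2 mM ATP and 0.06 µM biotinylated peptide (final).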

T1 sequence (Q9BUB5 1-424 isoform Q9BUB5-2 T344D): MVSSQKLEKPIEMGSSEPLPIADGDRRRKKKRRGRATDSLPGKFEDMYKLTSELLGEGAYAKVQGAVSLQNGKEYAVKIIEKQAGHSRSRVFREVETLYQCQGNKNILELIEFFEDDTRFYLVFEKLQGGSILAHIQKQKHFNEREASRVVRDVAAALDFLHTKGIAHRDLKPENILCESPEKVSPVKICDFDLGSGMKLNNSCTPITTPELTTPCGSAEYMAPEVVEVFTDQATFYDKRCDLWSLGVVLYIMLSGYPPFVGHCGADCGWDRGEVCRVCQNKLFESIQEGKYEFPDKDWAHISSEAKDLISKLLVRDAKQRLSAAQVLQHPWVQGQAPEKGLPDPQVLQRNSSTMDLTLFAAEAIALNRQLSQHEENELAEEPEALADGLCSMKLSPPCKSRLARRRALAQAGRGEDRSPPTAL

IC50 [nM] | Structure (SMILES)
25 | CN1CCN(C(=O)C2CCc3[nH]c4ncnc(Nc5ccc6[nH]c(=O)sc6c5)c4c3C2)CC1 (racemic) [Example 222, (RS)-6-({6-[(4-Methylpiperazin-1-yl)carbonyl]-6,7,8,9-tetrahydro-5H-pyrimido[4,5-b]indol-4-yl}amino)-1,3-benzothiazol-2(3H)-one]
1100 | Nc1ccc2c(c1)N(c1ncnc3[nH]c4c(c13)CCCC4)CC2 [Example 111]
2940 | CC(C)Oc1cc(F)ccc1Nc1ncnc2[nH]c3c(c12)CN(Cc1ccccc1)CC3 [Example 8, 6-Benzyl-N-(4-fluoro-2-isopropoxyphenyl)-6,7,8,9-tetrahydro-5H-pyrido[3′,4′:4,5]pyrrolo[2,3-d]pyrimidin-4-amine]
5700 | COCC1(OC)CCc2[nH]c3ncnc(Nc4cc5[nH]c(=O)[nH]c5cc4Cl)c3c2C1 (racemic) [Example 131]
469 | CS(=O)(=O)CCCNC(=O)C1CCc2[nH]c3ncnc(Nc4ccccc4OC(F)F)c3c2C1 (racemic) [Example 154, (RS)-4-{[2-(Difluoromethoxy)phenyl]amino}-N-[3-(methylsulfonyl)propyl]-6,7,8,9-tetrahydro-5H-pyrimido[4,5-b]indole-6-carboxamide]
58 | O=c1[nH]c2ccc(Nc3ncnc4[nH]c5c(c34)CCCC5)cc2s1 [Example 117]
494 | CC1(C)Cc2cccc(Nc3ncnc4[nH]c5c(c34)CC(C(=O)NCCCS(C)(=O)=O)CC5)c2O1 (racemic) [Example 80, (RS)-4-[(2,2-Dimethyl-2,3-dihydro-1-benzofuran-7-yl)amino]-N-[3-(methylsulfonyl)propyl]-6,7,8,9-tetrahydro-5H-pyrimido[4,5-b]indole-6-carboxamide]
242 | O=C(Nc1ccccc1)C1CCc2[nH]c3ncnc(Nc4ccccc4N4CCOCC4)c3c2C1 (racemic) [Example 205, (RS)-4-{[2-(Morpholin-4-yl)phenyl]amino}-N-phenyl-6,7,8,9-tetrahydro-5H-pyrimido[4,5-b]indole-6-carboxamide]
35 | COc1cc(F)c(F)cc1Nc1ncnc2[nH]c3c(c12)CC(C(=O)NCCCS(C)(=O)=O)CC3 (racemic) [Example 161, (RS)-4-[(4,5-Difluoro-2-methoxyphenyl)amino]-N-[3-(methylsulfonyl)propyl]-6,7,8,9-tetrahydro-5H-pyrimido[4,5-b]indole-6-carboxamide]
2750 | CS(=O)(=O)CCCNC(=O)C1CCc2[nH]c3ncnc(Nc4ccc(OC(F)F)cc4)c3c2C1 (racemic) [Example 31, (RS)-4-{[4-(Difluoromethoxy)phenyl]amino}-N-[3-(methylsulfonyl)propyl]-6,7,8,9-tetrahydro-5H-pyrimido[4,5-b]indole-6-carboxamide]
124 | Cc1ccc(Nc2ncnc3[nH]c4c(c23)CC(C(=O)NCCCS(C)(=O)=O)CC4)cc1S(=O)(=O)O (racemic) [Example 59, (RS)-2-Methyl-5-[(6-{[3-(methylsulfonyl)propyl]carbamoyl}-6,7,8,9-tetrahydro-5H-pyrimido[4,5-b]indol-4-yl)amino]benzenesulfonic acid]
339 | COCC1(OC)CCc2[nH]c3ncnc(Nc4cc(Cl)c(Cl)cc4OC)c3c2C1 (racemic) [Example 140]
615 | COc1ccc(OC)c(Nc2ncnc3[nH]c4c(c23)CC(C(=O)NCCCS(C)(=O)=O)CC4)c1 (racemic) [Example 42, (RS)-4-[(2,5-Dimethoxyphenyl)amino]-N-[3-(methylsulfonyl)propyl]-6,7,8,9-tetrahydro-5H-pyrimido[4,5-b]indole-6-carboxamide]
149 | O=C(O)C1CCc2[nH]c3ncnc(Nc4ccc(Cl)c(Cl)c4)c3c2C1 (racemic) [Example 233, (RS)-4-[(3,4-Dichlorophenyl)amino]-6,7,8,9-tetrahydro-5H-pyrimido[4,5-b]indole-6-carboxylic acid]
1 | COc1cc2[nH]ncc2cc1Nc1ncnc2[nH]c3c(c12)CC(C(=O)NCc1ccccc1)CC3 (racemic) [Example 219, (RS)—N-Benzyl-4-[(6-methoxy-1H-indazol-5-yl)amino]-6,7,8,9-tetrahydro-5H-pyrimido[4,5-b]indole-6-carboxamide]
14 | CS(=O)(=O)CCCNC(=O)C1CCc2[nH]c3ncnc(Nc4ccc5[nH]c(=O)sc5c4)c3c2C1 (racemic) [Example 29, (RS)—N-[3-(Methylsulfonyl)propyl]-4-[(2-oxo-2,3-dihydro-1,3-benzothiazol-6-yl)amino]-6,7,8,9-tetrahydro-5H-pyrimido[4,5-b]indole-6-carboxamide]
171 | O=C(NC1CC1)C1CCc2[nH]c3ncnc(Nc4ccccc4OC4CCCC4)c3c2C1 (racemic) [Example 191, (RS)-4-{[2-(Cyclopentyloxy)phenyl]amino}-N-cyclopropyl-6,7,8,9-tetrahydro-5H-pyrimido[4,5-b]indole-6-carboxamide]
359 | CCOC(=O)C1CCc2[nH]c3ncnc(Nc4cc(Cl)ccc4OC)c3c2C1 (racemic) [Example 175, (RS)-Ethyl 4-[(5-chloro-2-methoxyphenyl)amino]-6,7,8,9-tetrahydro-5H-pyrimido[4,5-b]indole-6-carboxylate]

IC50 [nM] | Structure (SMILES)
24 | CS(=O)(=O)CCCNC(=O)C1CCc2[nH]c3ncnc(Nc4ccccc4OC4CCCC4)c3c2C1 (racemic) [Example 78, (RS)-4-{[2-(Cyclopentyloxy)phenyl]amino}-N-[3-(methylsulfonyl)propyl]-6,7,8,9-tetrahydro-5H-pyrimido[4,5-b]indole-6-carboxamide]
188 | COc1ccc(F)cc1Nc1ncnc2[nH]c3c(c12)CC(C(=O)NC1CC1)CC3 (racemic) [Example 197, (RS)—N-Cyclopropyl-4-[(5-fluoro-2-methoxyphenyl)amino]-6,7,8,9-tetrahydro-5H-pyrimido[4,5-b]indole-6-carboxamide]
1160 | COc1cccc(Nc2ncnc3[nH]c4c(c23)CC(C(=O)NCCCS(C)(=O)=O)CC4)c1OC (racemic) [Example 74, (RS)-4-[(2,3-Dimethoxyphenyl)amino]-N-[3-(methylsulfonyl)propyl]-6,7,8,9-tetrahydro-5H-pyrimido[4,5-b]indole-6-carboxamide]
≥ 20000 | O=[N+]([O-])c1ccc2c(c1)N(c1ncnc3[nH]c4c(c13)CCCC4)CC2 [Example 121]
3140 | CCNC(=O)C1CCc2[nH]c3ncnc(N4CCc5ccccc54)c3c2C1 (racemic) [Example 207, (RS)-4-(2,3-Dihydro-1H-indol-1-yl)-N-ethyl-6,7,8,9-tetrahydro-5H-pyrimido[4,5-b]indole-6-carboxamide]
197 | COCC1(OC)CCc2[nH]c3ncnc(Nc4cc5cn[nH]c5cc4F)c3c2C1 (racemic) [Example 139]
1160 | CS(=O)(=O)CCCNC(=O)C1CCc2[nH]c3ncnc(Nc4ccc5c(c4)CS(=O)(=O)C5)c3c2C1 (racemic) [Example 40, (RS)-4-[(2,2-Dioxido-1,3-dihydro-2-benzothiophen-5-yl)amino]-N-[3-(methylsulfonyl)propyl]-6,7,8,9-tetrahydro-5H-pyrimido[4,5-b]indole-6-carboxamide]
306 | COc1cc(Nc2ncnc3[nH]c4c(c23)CC(C(=O)NCCCS(C)(=O)=O)CC4)ccc1F (racemic) [Example 34, (RS)-4-[(4-Fluoro-3-methoxyphenyl)amino]-N-[3-(methylsulfonyl)propyl]-6,7,8,9-tetrahydro-5H-pyrimido[4,5-b]indole-6-carboxamide]
62 | O=S1(=O)CCc2[nH]c3ncnc(Nc4ccc5[nH]ncc5c4)c3c2C1 [Example 83, N-(1H-Indazol-5-yl)-5,7,8,9-tetrahydrothiopyrano[3′,4′:4,5]pyrrolo[2,3-d]pyrimidin-4-amine 6,6-dioxide]
27 | c1nc(Nc2ccc3[nH]ncc3c2)c2c3c([nH]c2n1)CCCC3 [Example 2, N-(1H-Indazol-5-yl)-6,7,8,9-tetrahydro-5H-pyrimido[4,5-b]indol-4-amine]
1790 | O=c1[nH]c2ccc(Nc3ncnc4[nH]c5c(c34)CCCC5)cc2[nH]1 [Example 115]
313 | COc1cc(Cl)c(Cl)cc1Nc1ncnc2[nH]c3c(c12)CC(C(=O)Nc1ccccc1)CC3 (racemic) [Example 22, (RS)-4-[(4,5-Dichloro-2-methoxyphenyl)amino]-N-phenyl-6,7,8,9-tetrahydro-5H-pyrimido[4,5-b]indole-6-carboxamide]
511 | CS(=O)(=O)CCCNC(=O)C1CCc2[nH]c3ncnc(Nc4cccc(-c5cnco5)c4)c3c2C1 (racemic) [Example 55, (RS)—N-[3-(Methylsulfonyl)propyl]-4-{[3-(1,3-oxazol-5-yl)phenyl]amino}-6,7,8,9-tetrahydro-5H-pyrimido[4,5-b]indole-6-carboxamide]
2700 | Cc1nc2c(Nc3ncnc4[nH]c5c(c34)CC(C(=O)NCCCS(C)(=O)=O)CC5)cccc2[nH]1 (racemic) [Example 169, (RS)-4-[(2-Methyl-1H-benzimidazol-4-yl)amino]-N-[3-(methylsulfonyl)propyl]-6,7,8,9-tetrahydro-5H-pyrimido[4,5-b]indole-6-carboxamide]
1900 | CCOC(=O)C1CCc2[nH]c3ncnc(Nc4ccccc4OC4CCCC4)c3c2C1 (racemic) [Example 170, (RS)-Ethyl 4-{[2-(cyclopentyloxy)phenyl]amino}-6,7,8,9-tetrahydro-5H-pyrimido[4,5-b]indole-6-carboxylate]
5 | COc1cc2[nH]ncc2cc1Nc1ncnc2[nH]c3c(c12)CC(C(=O)NC(C)C)CC3 (racemic) [Example 216, (RS)-4-[(6-Methoxy-1H-indazol-5-yl)amino]-N-(propan-2-yl)-6,7,8,9-tetrahydro-5H-pyrimido[4,5-b]indole-6-carboxamide]
10500 | CS(=O)(=O)CCCNC(=O)C1CCc2[nH]c3ncnc(Nc4ccc(F)c5[nH]c(=O)ccc45)c3c2C1 (racemic) [Example 82, (RS)-4-[(8-Fluoro-2-oxo-1,2-dihydroquinolin-5-yl)amino]-N-[3-(methylsulfonyl)propyl]-6,7,8,9-tetrahydro-5H-pyrimido[4,5-b]indole-6-carboxamide]
